Assays:
TrkB = target: T1, TrkB (Rattus norvegicus, UniProt Q63604); experiment: biochemical; type: binding
T1 construct: expressed in transfected cells; host or cells: HEK293T

[1] = test system: dendritic arbor complexity of neuronal cultures; experiment: Dendritogenesis (Sholl analysis) in neuronal cultures (WT and Y433F^+/−); type: cell-based, mouse; details: for Sholl analysis, Mean at distance from soma: fig 6j
Outline: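 Some cultures were pretreated 10 min with TrkB.FC (200 ng ml^−1) or M100907 (100 nM), which stayed in the medium alongside cumulative psychedelic doses. Sholl analysis counted dendritic intersections every 5 μm from the soma.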

TrkB (WT) dimerization = target: T2, TrkB (WT) dimerization (Rattus norvegicus, UniProt Q63604); experiment: Split-luciferase PCA of TrkB dimerization in N2a cells; type: cell-based
T2 construct: expressed in transfected cells; host or cells: N2a
Outline: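 N2a cells transiently co-transfected with split hGLuc-tagged rat TrkB pairs (WT/WT or Y433F/WT) for dimerization; Ketanserin, M100907 or TRKB.FC added 10 min before treatment. Luminescence read after injection of native coelenterazine ([…] final).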

[2] = ext fig 1f, competition curve, n=5

T1 sequence (Q63604 32-821): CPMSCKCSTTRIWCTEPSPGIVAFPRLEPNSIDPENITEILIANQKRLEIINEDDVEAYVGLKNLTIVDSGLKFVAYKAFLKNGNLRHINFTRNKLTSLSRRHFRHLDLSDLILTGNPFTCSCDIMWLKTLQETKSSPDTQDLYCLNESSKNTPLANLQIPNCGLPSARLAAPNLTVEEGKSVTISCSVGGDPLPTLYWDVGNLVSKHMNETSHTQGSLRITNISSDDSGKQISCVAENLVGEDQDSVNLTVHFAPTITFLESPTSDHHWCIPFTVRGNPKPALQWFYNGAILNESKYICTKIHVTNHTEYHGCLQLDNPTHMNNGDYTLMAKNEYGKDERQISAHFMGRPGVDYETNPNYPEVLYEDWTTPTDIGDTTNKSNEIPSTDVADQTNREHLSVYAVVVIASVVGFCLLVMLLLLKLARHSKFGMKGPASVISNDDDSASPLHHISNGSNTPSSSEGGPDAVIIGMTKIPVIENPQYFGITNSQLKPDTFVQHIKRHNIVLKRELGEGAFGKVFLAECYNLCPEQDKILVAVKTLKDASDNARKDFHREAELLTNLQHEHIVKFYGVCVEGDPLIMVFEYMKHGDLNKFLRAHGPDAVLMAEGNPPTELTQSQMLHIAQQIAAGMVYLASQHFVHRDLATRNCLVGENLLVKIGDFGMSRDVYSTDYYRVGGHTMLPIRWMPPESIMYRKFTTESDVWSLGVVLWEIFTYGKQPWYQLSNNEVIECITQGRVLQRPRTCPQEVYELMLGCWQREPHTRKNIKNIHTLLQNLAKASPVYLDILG
T2 sequence (Q63604 32-821): as above
T2 sequence (Q63604 32-821): as above

COc1cccc([C@H](O)C2CCN(CCc3ccc(F)cc3)CC2)c1OC [M100907]
displacement of ^3H-LSD from TrkB (TrkB; 1 nM to 10 µM of drug): fail to displace LSD binding to TrkB | Fit status, specific binding with Hill slope (TrkB; ext fig 1f): Ambiguous | Bmax (specific binding with Hill slope, best-fit) (TrkB; [2]): 94.18 | h (Hill slope, best-fit) (TrkB; [2]): ~ 1.901 | effect of pretreatment on LSD effects on dendritogenesis ([1]; TrkB.FC 200 ng ml^−1 or M100907 100 nM): not M100907 prevented LSD effects on dendritogenesis | dendritic arbor complexity, Mean Diff. (Vehicle:vehicle vs. group) ([1]; fig 6i, Bonferroni's multiple comparisons test): -9.087 | dendritic arbor complexity, group mean (Mean 2) ([1]; fig 6i, treatment:pretreatment groups, Vehicle:vehicle mean 69.72): 78.81 | Sholl analysis, Mean at distance from soma ([1]; distance from soma 10 µm): 6.619 | Sholl analysis, Mean at distance from soma ([1]; distance from soma 15 µm): 6.476 | Sholl analysis, Mean at distance from soma ([1]; distance from soma 20 µm): 6.048 | Sholl analysis, Mean at distance from soma ([1]; distance from soma 25 µm): 6.333 | Sholl analysis, Mean at distance from soma ([1]; distance from soma 30 µm): 5.286 | Sholl analysis, Mean at distance from soma ([1]; distance from soma 35 µm): 4.524 | Sholl analysis, Mean at distance from soma ([1]; distance from soma 40 µm): 4.619 | Sholl analysis, Mean at distance from soma ([1]; distance from soma 45 µm): 3.714 | Sholl analysis, Mean at distance from soma ([1]; distance from soma 50 µm): 3.667 | Sholl analysis, Mean at distance from soma ([1]; distance from soma 55 µm): 3.571 | Sholl analysis, Mean at distance from soma ([1]; distance from soma 60 µm): 3.381 | Sholl analysis, Mean at distance from soma ([1]; distance from soma 65 µm): 3.238 | Sholl analysis, Mean at distance from soma ([1]; distance from soma 70 µm): 2.905 | Sholl analysis, Mean at distance from soma ([1]; distance from soma 75 µm): 2.857 | Sholl analysis, Mean at distance from soma ([1]; distance from soma 80 µm): 3.429 | Sholl analysis, Mean at distance from soma ([1]; distance from soma 85 µm): 3.429 | Sholl analysis, Mean at distance from soma ([1]; distance from soma 90 µm): 3.381 | Sholl analysis, Mean at distance from soma ([1]; distance from soma 95 µm): 2.619 | Sholl analysis, Mean at distance from soma ([1]; distance from soma 100 µm): 2.714 | Group mean (Mean 2; Vehicle:vehicle = 100), fig 4d (TrkB (WT) dimerization; M100907 alone (M100907:vehicle), n=20): 100 | effect of pretreatment on LSD- and BDNF-induced TrkB dimerization (TrkB (WT) dimerization; ketanserin 100 nM, M100907 100 nM or TrkB.FC 200 ng ml^−1, 10 min before): fails to prevent the effects of LSD and BDNF on TrkB dimerization

Reference: article PMC10244169, “Psychedelics promote plasticity by directly binding to BDNF receptor TrkB” (Nature Neuroscience, 2023)
